#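 Five compound concentrations were applied to cells in 96-well plates for 48 hours; endpoints were derived by simple linear interpolation of the resulting dose-response curve. GI50 = concentration required for 50% inhibition of growth. At the TGI there is no net growth.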
# How the values were obtained:
# Test in all cases: growth of human tumour cells (NCI), 48 h
# [1] = system: 786-0 renal
# [2] = system: A498 renal
# [3] = system: A549 NSCLC
# [4] = system: ACHN renal
# [5] = system: CAKI-1 renal
# [6] = system: CCRF-CEM leukemia
# [7] = system: COLO 205 colon
# [8] = system: DLD-1 colon
# [9] = system: DMS 273 small cell lung
# [10] = system: EKVX NSCLC
# [11] = system: HCC-2998 colon
# [12] = system: HL-60(TB) leukemia
# [13] = system: HOP-62 NSCLC
# [14] = system: HOP-92 NSCLC
# [15] = system: HT29 colon
# [16] = system: IGROV1 ovarian
# [17] = system: K-562 leukemia
# [18] = system: KM12 colon
# [19] = system: KM20L2 colon
# [20] = system: LOX IMVI melanoma
# [21] = system: LXFL 529 NSCLC
# [22] = system: M14 melanoma
# [23] = system: M19-MEL melanoma
# [24] = system: MALME-3M melanoma
# [25] = system: MOLT-4 leukemia
# [26] = system: NCI-H226 lung
# [27] = system: NCI-H23 lung
# [28] = system: NCI-H460 lung
# [29] = system: NCI-H522 lung
# [30] = system: OVCAR-3 ovarian
# [31] = system: OVCAR-4 ovarian
# [32] = system: OVCAR-5 ovarian
# [33] = system: OVCAR-8 ovarian
# [34] = system: RPMI-8226 leukemia
# [35] = system: RXF 393 renal
# [36] = system: RXF-631 renal
# [37] = system: SF-268 CNS
# [38] = system: SF-295 CNS
# [39] = system: SF-539 CNS
# [40] = system: SK-MEL-2 melanoma
# [41] = system: SK-MEL-28 melanoma
# [42] = system: SK-MEL-5 melanoma
# [43] = system: SK-OV-3 ovarian
# [44] = system: SN12C renal
# [45] = system: SNB-19 CNS
# [46] = system: SNB-75 CNS
# [47] = system: SNB-78 CNS
# [48] = system: SW-620 colon
# [49] = system: TK-10 renal
# [50] = system: U251 CNS
# [51] = system: UACC-257 melanoma
# [52] = system: UO-31 renal
# [53] = system: XF 498 CNS
# [54] = system: BT-549 breast
# [55] = system: DMS 114 small cell lung
# [56] = system: DU-145 prostate
# [57] = system: HCT-116 colon
# [58] = system: HCT-15 colon
# [59] = system: HS 578T breast
# [60] = system: MCF7 breast
# [61] = system: MDA-MB-231 breast
# [62] = system: MDA-MB-435
# [63] = system: MDA-N
# [64] = system: NCI/ADR-RES ovarian
# [65] = system: PC-3 prostate
# [66] = system: SR leukemia
# [67] = system: T-47D breast
# [68] = system: UACC-62 melanoma
compound,measurement,setting,value
CCc1cccc(C)c1NC(=O)C1=C(C)NC(C)=C(C(=O)Nc2c(C)cccc2CC)C1c1ccc([N+](=O)[O-])cc1,TGI,[1],> 100 µM
same,TGI,[2],> 100 µM
same,TGI,[3],> 100 µM
same,TGI,[4],> 100 µM
same,TGI,[5],89.6 µM
same,TGI,[6],> 100 µM
same,TGI,[7],> 100 µM
same,TGI,[8],> 100 µM
same,TGI,[9],> 100 µM
same,TGI,[10],> 100 µM
same,TGI,[11],> 100 µM
same,TGI,[12],49.5 µM
same,TGI,[13],> 100 µM
same,TGI,[14],30.1 µM
same,TGI,[15],> 100 µM
same,TGI,[16],> 100 µM
same,TGI,[17],> 100 µM
same,TGI,[18],> 100 µM
same,TGI,[19],> 100 µM
same,TGI,[20],> 100 µM
same,TGI,[21],> 100 µM
same,TGI,[22],> 100 µM
same,TGI,[23],> 100 µM
same,TGI,[24],> 100 µM
same,TGI,[25],46.6 µM
same,TGI,[26],> 100 µM
same,TGI,[27],> 100 µM
same,TGI,[28],> 100 µM
same,TGI,[29],68.3 µM
same,TGI,[30],> 100 µM
same,TGI,[31],> 100 µM
same,TGI,[32],> 100 µM
same,TGI,[33],> 100 µM
same,TGI,[34],57.3 µM
same,TGI,[35],> 100 µM
same,TGI,[36],> 100 µM
same,TGI,[37],> 100 µM
same,TGI,[38],> 100 µM
same,TGI,[39],> 100 µM
same,TGI,[40],> 100 µM
same,TGI,[41],> 100 µM
same,TGI,[42],> 100 µM
same,TGI,[43],> 100 µM
same,TGI,[44],> 100 µM
same,TGI,[45],> 100 µM
same,TGI,[46],> 100 µM
same,TGI,[47],> 100 µM
same,TGI,[48],> 100 µM
same,TGI,[49],> 100 µM
same,TGI,[50],> 100 µM
same,TGI,[51],> 100 µM
same,TGI,[52],> 100 µM
same,TGI,[53],66.9 µM
O=P(O)(NCCCl)NCCCl,TGI,[1],> 100 µM
same,TGI,[2],> 100 µM
same,TGI,[3],> 100 µM
same,TGI,[4],> 100 µM
same,TGI,[54],> 100 µM
same,TGI,[5],> 100 µM
same,TGI,[6],> 100 µM
same,TGI,[7],> 100 µM
same,GI50,[8],> 100 µM
same,TGI,[8],> 100 µM
same,GI50,[55],99.1 µM
same,TGI,[55],> 100 µM
same,TGI,[9],> 100 µM
same,TGI,[56],> 100 µM
same,GI50,[10],> 100 µM
same,TGI,[10],> 100 µM
same,TGI,[11],> 100 µM
same,TGI,[57],> 100 µM
same,GI50,[58],> 100 µM
same,TGI,[58],> 100 µM
same,TGI,[12],> 100 µM
same,TGI,[13],> 100 µM
same,TGI,[14],> 100 µM
same,TGI,[59],> 100 µM
same,GI50,[15],> 100 µM
same,TGI,[15],> 100 µM
same,TGI,[16],> 100 µM
same,TGI,[17],> 100 µM
same,GI50,[18],> 100 µM
same,TGI,[18],> 100 µM
same,TGI,[20],> 100 µM
same,GI50,[21],> 100 µM
same,TGI,[21],> 100 µM
same,GI50,[22],5.78 µM
same,TGI,[22],> 100 µM
same,GI50,[23],> 100 µM
same,TGI,[23],> 100 µM
same,TGI,[24],> 100 µM
same,TGI,[60],> 100 µM
same,TGI,[61],> 100 µM
same,TGI,[62],> 100 µM
same,TGI,[63],> 100 µM
same,TGI,[25],> 100 µM
same,TGI,[26],> 100 µM
same,TGI,[27],> 100 µM
same,GI50,[28],4.03 µM
same,TGI,[28],> 100 µM
same,TGI,[29],> 100 µM
same,TGI,[64],> 100 µM
same,GI50,[30],> 100 µM
same,TGI,[30],> 100 µM
same,TGI,[31],> 100 µM
same,GI50,[32],> 100 µM
same,TGI,[32],> 100 µM
same,GI50,[33],> 100 µM
same,TGI,[33],> 100 µM
same,TGI,[65],> 100 µM
same,TGI,[34],> 100 µM
same,GI50,[35],> 100 µM
same,TGI,[35],> 100 µM
same,TGI,[36],> 100 µM
same,TGI,[37],> 100 µM
same,TGI,[38],> 100 µM
same,TGI,[39],> 100 µM
same,TGI,[40],> 100 µM
same,TGI,[41],> 100 µM
same,GI50,[42],> 100 µM
same,TGI,[42],> 100 µM
same,TGI,[43],> 100 µM
same,TGI,[44],> 100 µM
same,GI50,[45],> 100 µM
same,TGI,[45],> 100 µM
same,GI50,[46],7.07 µM
same,TGI,[46],> 100 µM
same,GI50,[47],> 100 µM
same,TGI,[47],> 100 µM
same,GI50,[66],40.6 µM
same,TGI,[66],> 100 µM
same,GI50,[48],> 100 µM
same,TGI,[48],> 100 µM
same,TGI,[67],> 100 µM
same,GI50,[49],> 100 µM
same,TGI,[49],> 100 µM
same,GI50,[50],> 100 µM
same,TGI,[50],> 100 µM
same,GI50,[51],> 100 µM
same,TGI,[51],> 100 µM
same,TGI,[68],> 100 µM
same,TGI,[52],> 100 µM
same,GI50,[53],> 100 µM
same,TGI,[53],> 100 µM

# Source: PubChem BioAssay (NCI)
